Test results as given in ChEMBL document CHEMBL5338754, “Identification of Binding Sites in the Nucleotide-Binding Domain of P-Glycoprotein for a Potent and Nontoxic Modulator, the Amine-Containing Monomeric Flavonoid FM04” (J Med Chem, 2023).

Experiments:
[1] = biological target: ATP-dependent translocase ABCB1 (Homo sapiens, UniProt P08183, I1115W); experiment: Negative allosteric modulator activity at human P-gp I1115W mutant expressed in HEK293FT cells assessed as increase in intracellular doxorubicin accumulation using doxorubicin as substrate at 1 uM incubated for 150 mins by microplate reader assay (reference value: 98.4 +/- 1.3 %); assay type: cell-based; conditions: 2.5 h
[2] = biological target: ATP-dependent translocase ABCB1 (Homo sapiens, UniProt P08183, I1115Y); experiment: Negative allosteric modulator activity at human P-gp I1115Y mutant expressed in HEK293FT cells assessed as fold change in intracellular doxorubicin accumulation using doxorubicin as substrate at 1 uM incubated for 150 mins by microplate reader assay relative to DMSO; assay type: cell-based; conditions: 2.5 h
[3] = biological target: ATP-dependent translocase ABCB1 (Homo sapiens, UniProt P08183, T1226F); experiment: Negative allosteric modulator activity at human P-gp T1226F mutant expressed in HEK293FT cells assessed as increase in intracellular doxorubicin accumulation using doxorubicin as substrate at 1 uM incubated for 150 mins by microplate reader assay (reference value: 67.6 +/- 1.9 %); assay type: cell-based; conditions: 2.5 h
[4] = biological target: T1, ATP-dependent translocase ABCB1 (Homo sapiens, UniProt P08183, Q1193C); experiment: Negative allosteric modulator activity at human P-gp Q1193C mutant expressed in HEK293FT cells assessed as reversal of P-gp mediated PTX resistance by measuring sensitivity fold change incubated for 5 days by MTS assay; assay type: cell-based; conditions: 120 h, time 5 day
[5] = biological target: T2, ATP-dependent translocase ABCB1 (Homo sapiens, UniProt P08183, Q1193N); experiment: Negative allosteric modulator activity at human P-gp Q1193N mutant expressed in HEK293FT cells assessed as increase in intracellular doxorubicin accumulation using doxorubicin as substrate at 1 uM incubated for 150 mins by microplate reader assay (reference value: 59.7 +/- 2.1 %); assay type: cell-based; conditions: 2.5 h
[6] = biological target: ATP-dependent translocase ABCB1 (Mus musculus, UniProt P06795); experiment: Binding affinity to mouse P-glycoprotein expressed in Pichia pastoris assessed as stabilization of protein by measuring fluorescence at 100 uM incubated for 1 hr by Western blotting analysis
[7] = biological target: P-gp (ABCB1) wildtype (Homo sapiens, UniProt P08183); experiment: Activation of P-gp ATPase activity in wildtype human P-gp expressed in HEK293FT cell microsomes assessed as fold change of ATPase activity at 20 uM incubated for 1 hr in presence of ATP by Glo-luminescence based microplate reader assay relative to DMSO; set-up: species or system Microsome; conditions: microsomes of HEK293FT cells expressing wildtype human P-gp, read-out: FC
[8] = biological target: ATP-dependent translocase ABCB1 (Homo sapiens, UniProt P08183, G1114A); experiment: Negative allosteric modulator activity at human P-gp G1114A mutant expressed in HEK293FT cells assessed as fold change in intracellular doxorubicin accumulation using doxorubicin as substrate at 1 uM incubated for 150 mins by microplate reader assay relative to DMSO; assay type: cell-based; conditions: 2.5 h
[9] = biological target: T3, ATP-dependent translocase ABCB1 (Homo sapiens, UniProt P08183, I1115F); experiment: Negative allosteric modulator activity at human P-gp I1115F mutant expressed in HEK293FT cells assessed as increase in intracellular doxorubicin accumulation using doxorubicin as substrate at 1 uM incubated for 150 mins by microplate reader assay (reference value: 65.5 +/- 0.9 %); assay type: cell-based; conditions: 2.5 h
[10] = biological target: T1, ATP-dependent translocase ABCB1; experiment: Activation of P-gp ATPase activity in human P-gp Q1193C mutant expressed in HEK293FT cell microsomes at 20 uM incubated for 1 hr in presence of ATP by Glo-luminescence based microplate reader assay (reference value: 0.45 +/- 0.04 pmol/min/microg); set-up: species or system Microsome
[11] = biological target: T2, ATP-dependent translocase ABCB1; experiment: Negative allosteric modulator activity at human P-gp Q1193N mutant expressed in HEK293FT cells assessed as reversal of P-gp mediated PTX resistance by measuring sensitivity fold change incubated for 5 days by MTS assay; assay type: cell-based; conditions: 120 h, time 5 day
[12] = biological target: ATP-dependent translocase ABCB1 (Homo sapiens, UniProt P08183, Q1193A); experiment: Negative allosteric modulator activity at human P-gp Q1193A mutant expressed in HEK293FT cells assessed as fold change in intracellular doxorubicin accumulation using doxorubicin as substrate at 1 uM incubated for 150 mins by microplate reader assay relative to DMSO; assay type: cell-based; conditions: 2.5 h
[13] = biological target: ATP-dependent translocase ABCB1 (Homo sapiens, UniProt P08183, Q1193E); experiment: Negative allosteric modulator activity at human P-gp Q1193E mutant expressed in HEK293FT cells assessed as reversal of P-gp mediated PTX resistance by measuring sensitivity fold change incubated for 5 days by MTS assay; assay type: cell-based; conditions: 120 h, time 5 day
[14] = biological target: T2, ATP-dependent translocase ABCB1; experiment: Activation of P-gp ATPase activity in human P-gp Q1193N mutant expressed in HEK293FT cell microsomes at 20 uM incubated for 1 hr in presence of ATP by Glo-luminescence based microplate reader assay (reference value: 0.34 +/- 0.05 pmol/min/microg); set-up: species or system Microsome
[15] = biological target: T4, ATP-dependent translocase ABCB1 (Homo sapiens, UniProt P08183, L1113A); experiment: Negative allosteric modulator activity at human P-gp L1113A mutant expressed in HEK293FT cells assessed as reversal of P-gp mediated PTX resistance by measuring sensitivity fold change incubated for 5 days by MTS assay; assay type: cell-based; conditions: 120 h, time 5 day
[16] = biological target: T3, ATP-dependent translocase ABCB1; experiment: Negative allosteric modulator activity at human P-gp I1115F mutant expressed in HEK293FT cells assessed as reversal of P-gp mediated PTX resistance by measuring sensitivity fold change incubated for 5 days by MTS assay; assay type: cell-based; conditions: 120 h, time 5 day
[17] = biological target: T4, ATP-dependent translocase ABCB1; experiment: Negative allosteric modulator activity at human P-gp L1113A mutant expressed in HEK293FT cells assessed as increase in intracellular doxorubicin accumulation using doxorubicin as substrate at 1 uM incubated for 150 mins by microplate reader assay (reference value: 45.6 +/- 1.5 %); assay type: cell-based; conditions: 2.5 h
[18] = biological target: ATP-dependent translocase ABCB1 (Homo sapiens, UniProt P08183, G1114L); experiment: Negative allosteric modulator activity at human P-gp G1114L mutant expressed in HEK293FT cells assessed as increase in intracellular doxorubicin accumulation using doxorubicin as substrate at 1 uM incubated for 150 mins by microplate reader assay (reference value: 97.9 +/- 4.2 %); assay type: cell-based; conditions: 2.5 h
[19] = biological target: T1, ATP-dependent translocase ABCB1; experiment: Activation of P-gp ATPase activity in human P-gp Q1193C mutant expressed in HEK293FT cell microsomes assessed as fold change of ATPase activity at 20 uM incubated for 1 hr in presence of ATP by Glo-luminescence based microplate reader assay relative to DMSO; set-up: species or system Microsome
[20] = biological target: T2, ATP-dependent translocase ABCB1; experiment: Negative allosteric modulator activity at human P-gp Q1193N mutant expressed in HEK293FT cells assessed as fold change in intracellular doxorubicin accumulation using doxorubicin as substrate at 1 uM incubated for 150 mins by microplate reader assay relative to DMSO; assay type: cell-based; conditions: 2.5 h
[21] = biological target: P-gp (ABCB1) I1115F mutant (Homo sapiens, UniProt P08183, I1115F); experiment: Activation of P-gp ATPase activity in human P-gp I1115F mutant expressed in HEK293FT cell microsomes assessed as fold change of ATPase activity at 20 uM incubated for 1 hr in presence of ATP by Glo-luminescence based microplate reader assay relative to DMSO; set-up: species or system Microsome; conditions: read-out: FC

T1 sequence (P08183 whole entry Q1193C): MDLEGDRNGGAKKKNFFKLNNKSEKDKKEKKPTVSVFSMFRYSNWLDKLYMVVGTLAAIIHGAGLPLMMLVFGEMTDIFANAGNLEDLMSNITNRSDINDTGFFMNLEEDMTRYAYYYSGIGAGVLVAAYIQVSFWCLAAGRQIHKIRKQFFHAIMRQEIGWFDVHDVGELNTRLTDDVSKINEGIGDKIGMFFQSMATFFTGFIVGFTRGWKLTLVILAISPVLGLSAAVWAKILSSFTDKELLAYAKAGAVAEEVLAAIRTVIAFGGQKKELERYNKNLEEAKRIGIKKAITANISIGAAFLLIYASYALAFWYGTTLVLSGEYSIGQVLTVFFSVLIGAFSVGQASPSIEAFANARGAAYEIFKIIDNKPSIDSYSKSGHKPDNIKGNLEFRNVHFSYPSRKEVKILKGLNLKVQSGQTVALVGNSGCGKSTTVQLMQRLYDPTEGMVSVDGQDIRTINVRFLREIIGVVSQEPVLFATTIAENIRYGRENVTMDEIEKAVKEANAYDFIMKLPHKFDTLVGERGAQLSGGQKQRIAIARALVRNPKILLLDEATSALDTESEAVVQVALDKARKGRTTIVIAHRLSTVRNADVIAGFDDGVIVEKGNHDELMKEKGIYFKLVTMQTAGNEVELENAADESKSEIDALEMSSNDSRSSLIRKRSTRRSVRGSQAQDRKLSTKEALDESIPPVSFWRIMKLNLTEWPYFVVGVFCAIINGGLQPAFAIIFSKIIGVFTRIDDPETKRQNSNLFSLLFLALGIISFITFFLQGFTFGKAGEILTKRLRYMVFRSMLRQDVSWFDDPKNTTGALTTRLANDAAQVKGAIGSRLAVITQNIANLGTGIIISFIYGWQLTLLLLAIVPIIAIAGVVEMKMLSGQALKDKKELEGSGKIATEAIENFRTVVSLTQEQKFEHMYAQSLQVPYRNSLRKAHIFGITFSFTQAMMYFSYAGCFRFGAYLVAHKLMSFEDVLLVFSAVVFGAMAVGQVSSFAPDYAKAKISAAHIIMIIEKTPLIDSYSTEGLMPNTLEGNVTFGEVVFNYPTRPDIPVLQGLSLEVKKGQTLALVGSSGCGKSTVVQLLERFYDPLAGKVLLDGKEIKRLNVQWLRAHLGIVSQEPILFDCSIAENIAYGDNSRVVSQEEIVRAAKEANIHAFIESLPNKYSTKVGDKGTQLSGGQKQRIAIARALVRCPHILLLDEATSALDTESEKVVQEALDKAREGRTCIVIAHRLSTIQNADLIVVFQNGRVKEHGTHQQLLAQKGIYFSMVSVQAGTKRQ
T2 sequence (P08183 whole entry Q1193N): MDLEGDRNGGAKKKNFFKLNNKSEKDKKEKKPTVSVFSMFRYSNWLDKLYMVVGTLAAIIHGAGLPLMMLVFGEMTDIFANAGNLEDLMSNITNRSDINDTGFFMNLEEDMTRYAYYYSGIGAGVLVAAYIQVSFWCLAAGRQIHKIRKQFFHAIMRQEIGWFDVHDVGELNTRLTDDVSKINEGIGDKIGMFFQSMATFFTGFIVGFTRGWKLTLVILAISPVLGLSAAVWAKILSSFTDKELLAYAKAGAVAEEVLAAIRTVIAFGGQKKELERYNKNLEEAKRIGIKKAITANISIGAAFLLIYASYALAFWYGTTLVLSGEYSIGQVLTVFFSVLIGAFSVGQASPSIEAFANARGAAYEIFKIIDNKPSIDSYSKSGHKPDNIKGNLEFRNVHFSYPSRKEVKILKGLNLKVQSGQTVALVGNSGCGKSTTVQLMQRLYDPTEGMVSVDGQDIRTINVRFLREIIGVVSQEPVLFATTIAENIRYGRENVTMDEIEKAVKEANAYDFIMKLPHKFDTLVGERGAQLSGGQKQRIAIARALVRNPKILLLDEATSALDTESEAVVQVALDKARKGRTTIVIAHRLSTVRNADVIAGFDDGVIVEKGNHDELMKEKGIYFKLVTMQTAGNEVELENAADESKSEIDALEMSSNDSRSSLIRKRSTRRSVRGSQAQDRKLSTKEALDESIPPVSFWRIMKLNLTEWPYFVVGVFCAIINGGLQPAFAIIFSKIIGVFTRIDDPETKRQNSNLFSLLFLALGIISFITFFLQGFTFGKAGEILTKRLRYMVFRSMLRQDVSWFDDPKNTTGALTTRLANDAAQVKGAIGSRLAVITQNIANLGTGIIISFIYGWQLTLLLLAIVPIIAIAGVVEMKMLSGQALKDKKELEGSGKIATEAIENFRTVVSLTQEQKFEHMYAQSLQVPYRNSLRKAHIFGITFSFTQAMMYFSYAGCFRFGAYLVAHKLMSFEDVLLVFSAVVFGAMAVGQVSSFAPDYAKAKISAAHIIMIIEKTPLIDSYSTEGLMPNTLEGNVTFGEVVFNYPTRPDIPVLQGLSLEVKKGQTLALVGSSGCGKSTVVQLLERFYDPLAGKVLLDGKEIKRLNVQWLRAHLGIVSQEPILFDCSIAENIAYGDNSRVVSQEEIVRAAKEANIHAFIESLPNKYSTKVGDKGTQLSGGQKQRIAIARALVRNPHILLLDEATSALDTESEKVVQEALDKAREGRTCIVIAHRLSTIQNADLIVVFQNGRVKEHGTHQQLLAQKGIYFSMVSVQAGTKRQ
T3 sequence (P08183 whole entry I1115F): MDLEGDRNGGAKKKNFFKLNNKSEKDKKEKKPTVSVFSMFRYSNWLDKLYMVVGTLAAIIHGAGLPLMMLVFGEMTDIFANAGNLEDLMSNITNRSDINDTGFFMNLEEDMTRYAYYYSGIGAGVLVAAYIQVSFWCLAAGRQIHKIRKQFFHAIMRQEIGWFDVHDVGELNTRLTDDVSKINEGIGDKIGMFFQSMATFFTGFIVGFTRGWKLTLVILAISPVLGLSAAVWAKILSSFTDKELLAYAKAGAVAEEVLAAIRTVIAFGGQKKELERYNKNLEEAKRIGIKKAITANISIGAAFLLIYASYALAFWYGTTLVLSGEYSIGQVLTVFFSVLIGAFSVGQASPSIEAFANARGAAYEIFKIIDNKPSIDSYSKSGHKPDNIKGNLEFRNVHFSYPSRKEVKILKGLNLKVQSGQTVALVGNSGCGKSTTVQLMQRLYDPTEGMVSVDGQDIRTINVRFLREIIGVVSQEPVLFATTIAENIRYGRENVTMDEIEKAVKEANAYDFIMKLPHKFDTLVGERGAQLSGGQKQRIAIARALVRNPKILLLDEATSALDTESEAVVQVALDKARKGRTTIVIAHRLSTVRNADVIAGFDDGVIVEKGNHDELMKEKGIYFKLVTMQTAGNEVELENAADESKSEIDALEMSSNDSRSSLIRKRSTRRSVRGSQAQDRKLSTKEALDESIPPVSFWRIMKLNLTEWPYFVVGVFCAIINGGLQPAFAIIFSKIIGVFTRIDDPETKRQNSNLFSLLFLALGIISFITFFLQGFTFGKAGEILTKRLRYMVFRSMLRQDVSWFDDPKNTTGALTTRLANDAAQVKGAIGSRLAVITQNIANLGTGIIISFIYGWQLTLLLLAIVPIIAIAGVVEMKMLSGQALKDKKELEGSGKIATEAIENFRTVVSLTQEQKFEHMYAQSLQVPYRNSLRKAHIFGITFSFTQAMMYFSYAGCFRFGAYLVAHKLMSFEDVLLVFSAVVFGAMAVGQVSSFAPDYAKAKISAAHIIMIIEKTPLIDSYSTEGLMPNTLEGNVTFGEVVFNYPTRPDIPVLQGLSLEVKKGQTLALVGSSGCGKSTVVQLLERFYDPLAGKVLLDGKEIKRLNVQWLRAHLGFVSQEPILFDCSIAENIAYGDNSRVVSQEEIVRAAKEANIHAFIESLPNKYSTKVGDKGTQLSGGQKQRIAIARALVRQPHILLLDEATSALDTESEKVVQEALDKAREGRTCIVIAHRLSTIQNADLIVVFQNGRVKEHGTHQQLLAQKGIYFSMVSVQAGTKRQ
T4 sequence (P08183 whole entry L1113A): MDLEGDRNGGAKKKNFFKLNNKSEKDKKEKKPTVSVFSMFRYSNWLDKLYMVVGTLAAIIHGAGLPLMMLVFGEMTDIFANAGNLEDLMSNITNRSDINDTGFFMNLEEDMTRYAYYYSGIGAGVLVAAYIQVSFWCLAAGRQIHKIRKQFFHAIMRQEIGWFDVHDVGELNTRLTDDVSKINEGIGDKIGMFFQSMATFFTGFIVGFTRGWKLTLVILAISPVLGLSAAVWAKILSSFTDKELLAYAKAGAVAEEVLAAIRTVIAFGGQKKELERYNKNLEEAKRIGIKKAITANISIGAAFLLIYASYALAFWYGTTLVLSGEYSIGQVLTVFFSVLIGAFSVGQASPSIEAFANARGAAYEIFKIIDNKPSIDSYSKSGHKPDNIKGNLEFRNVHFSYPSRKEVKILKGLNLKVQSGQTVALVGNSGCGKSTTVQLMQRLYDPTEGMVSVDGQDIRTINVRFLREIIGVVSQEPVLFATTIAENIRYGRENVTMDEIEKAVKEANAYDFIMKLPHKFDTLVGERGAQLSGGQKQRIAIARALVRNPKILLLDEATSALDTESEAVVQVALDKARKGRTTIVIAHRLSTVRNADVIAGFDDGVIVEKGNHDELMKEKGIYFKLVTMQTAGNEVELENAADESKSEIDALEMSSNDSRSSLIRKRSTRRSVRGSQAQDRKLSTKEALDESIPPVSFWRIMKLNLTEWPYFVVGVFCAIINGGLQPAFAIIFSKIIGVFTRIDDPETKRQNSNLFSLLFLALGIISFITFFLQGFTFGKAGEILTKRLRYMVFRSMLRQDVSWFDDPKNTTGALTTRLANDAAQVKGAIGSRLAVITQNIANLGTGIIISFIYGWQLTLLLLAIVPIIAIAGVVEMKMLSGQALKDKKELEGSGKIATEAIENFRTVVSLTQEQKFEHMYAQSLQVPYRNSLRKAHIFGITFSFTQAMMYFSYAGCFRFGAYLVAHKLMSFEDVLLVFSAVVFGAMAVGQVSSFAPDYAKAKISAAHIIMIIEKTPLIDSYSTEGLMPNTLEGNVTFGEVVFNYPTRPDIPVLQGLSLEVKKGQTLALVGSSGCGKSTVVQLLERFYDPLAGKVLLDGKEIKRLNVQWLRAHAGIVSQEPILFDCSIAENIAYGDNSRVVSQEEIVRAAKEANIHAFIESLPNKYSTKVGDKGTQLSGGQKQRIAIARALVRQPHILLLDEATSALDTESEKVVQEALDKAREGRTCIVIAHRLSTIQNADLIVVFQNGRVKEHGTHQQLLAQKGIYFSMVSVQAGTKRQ

Activity [1]: 99% | fold change (FC) [2]: 1 | Activity [3]: 100.3% | fold change (FC) [4]: 12.4 | Activity [5]: 91.9% | Activity [6]: Not Active | fold induction at 1 h, 20 µM [7]: 1.6 | fold change (FC) [8]: 1 | Activity [9]: 83.8% | Activity [10]: 0.57 pmol/min/µg | fold change (FC) [11]: 51.4 | fold change (FC) [12]: 1.1 | fold change (FC) [13]: 4.3 | Activity [14]: 0.58 pmol/min/µg | fold change (FC) [15]: 140.5 | fold change (FC) [16]: 15.6 | Activity [17]: 82.2% | Activity [18]: 95% | fold change (FC) [19]: 1.3 | fold change (FC) [20]: 1.5 | fold induction at 1 h, 20 µM [21]: 1.2
Compound: O=c1cc(-c2ccc(OCCOCCNCc3ccccc3)cc2)oc2ccccc12
